Reference: US6608174B1, “Radiolabeled vasoactive intestinal peptide analogs for diagnosis and radiotherapy” (Dabur Research Foundation, priority 2000, dated 2003)
Read-outs that look alike come from different tables or passages of the source. Values belong to the molecule of their own block, whether it stands above or below them. Square brackets hold non-standard residues; d marks the D form. Ends that are not written are not given here. dPhe(4-Cl) = N[C@H](Cc1ccc(Cl)cc1)C(=O)O; Aib = CC(C)(N)C(=O)O

Key:
VIP receptors = assay: Receptor binding and competition assay with 125I labeled peptide (SEQ ID NO:2) on human tumor cell lines; details: for Kd: 4-8° C.
Description: In the practice of these methods, the peptide was radioiodinated using the iodogen method. Briefly, 5 μg of the peptide in 10 μl of 50 mM PBS (pH 7.5), an appropriate amount of the radioisotope and 50 μg-100 μg iodogen were incubated at room temperature for 15-30 min with occasional mixing. Radioiodinated peptide was purified from unincorporated radioactive iodine by purification on a Sep Pak C18 cartridge, essentially following the same procedure as described for technetium labeling. Receptor binding and competition assays were performed at 4-8° C. Briefly, 50,000 cells were plated per well of a 24 well plate and allowed to adhere overnight. Before the assay, the cells were washed twice with ice cold binding buffer (25 mM HEPES, 10 mM MgCl2 and 1% BSA in RPMI 1640 medium). The cells were incubated for 2-3 hrs with an appropriate concentration (0.1-10 nM) of the ^125I labeled peptide (SEQ ID NO:2), in the presence and absence of the cold ligand, which is the uniodinated form of the same peptide (1 nM-10 μM). After incubation, the cells were washed thrice with the binding buffer to remove the unbound peptide. The cells were lysed and counts were measured in a Gamma counter. From a comparison of the extent of binding in the presence or absence of the unlabeled peptide (SEQ ID NO:2), the dissociation constant (Kd) (TABLE I) and maximal binding (Bmax) (TABLE II) were calculated for the peptide. […] These characteristics are similar to what has been previously reported for VIP receptors. The following tumor cell lines were assayed using the above described binding competition assay: HT29 (human colorectal adenocarcinoma); PTC (human primary tumor cells adenocarcinoma); KB (human squamous cell carcinoma); 4451 (human squamous cell carcinoma); L132 (human lung carcinoma); A549 (human lung carcinoma); HBL100 (human breast carcinoma) and PA1 (human ovarian carcinoma). Cells were grown in RPMI 1640 supplemented with 10% fetal calf serum, glutamine and antibiotics using standard cell culture techniques (see Animal Cell Culture: A Practical Approach, Freshney, ed, IRL press: Oxford, UK, 1992).

[1] = target: VIP receptors on human tumor cell lines (human); assay: displacement of 125I labeled VIP (10-28) fragment on HBL 100 cells
[2] = target: low affinity (µM range), high surface expression receptor on human tumor cells (VIP receptor) (human); assay: maximal binding, 125I-SEQ ID NO:2 on HT29 cells
[3] = target: high affinity (nM range), low surface expression receptor on human tumor cells (VIP receptor) (human); assay: maximal binding, 125I-SEQ ID NO:2 on HT29 cells
[4] = target: VIP receptors on human tumor cell lines (human); assay: displacement of 125I labeled VIP on HBL 100 cells
[5] = target: low affinity (µM range), high surface expression receptor on human tumor cells (VIP receptor) (human); assay: homologous radioligand competition, 125I-SEQ ID NO:2 on KB cells
[6] = target: high affinity (nM range), low surface expression receptor on human tumor cells (VIP receptor) (human); assay: as above
[7] = target: high affinity (nM range), low surface expression receptor on human tumor cells (VIP receptor) (human); assay: homologous radioligand competition, 125I-SEQ ID NO:2 on A549 cells
[8] = target: low affinity (µM range), high surface expression receptor on human tumor cells (VIP receptor) (human); assay: maximal binding, 125I-SEQ ID NO:2 on 4451 cells
[9] = target: high affinity (nM range), low surface expression receptor on human tumor cells (VIP receptor) (human); assay: maximal binding, 125I-SEQ ID NO:2 on 4451 cells
[10] = target: low affinity (µM range), high surface expression receptor on human tumor cells (VIP receptor) (human); assay: maximal binding, 125I-SEQ ID NO:2 on L132 cells
[11] = target: high affinity (nM range), low surface expression receptor on human tumor cells (VIP receptor) (human); assay: maximal binding, 125I-SEQ ID NO:2 on L132 cells
[12] = target: VIP receptors on human tumor cell lines (human); assay: displacement of 125I labeled VIP on L132 cells
[13] = target: VIP receptors on human tumor cell lines (human); assay: displacement of 125I labeled VIP on KB cells
[14] = target: VIP receptors on human tumor cell lines (human); assay: displacement of 125I labeled VIP on A549 cells
[15] = target: low affinity (µM range), high surface expression receptor on human tumor cells (VIP receptor) (human); assay: maximal binding, 125I-SEQ ID NO:2 on PTC cells
[16] = target: high affinity (nM range), low surface expression receptor on human tumor cells (VIP receptor) (human); assay: maximal binding, 125I-SEQ ID NO:2 on PTC cells
[17] = target: VIP receptors on human tumor cell lines (human); assay: displacement of 125I labeled VIP on HT29 cells
[18] = target: VIP receptors on human tumor cell lines (human); assay: displacement of 125I labeled VIP (10-28) fragment on KB cells
[19] = target: low affinity (µM range), high surface expression receptor on human tumor cells (VIP receptor) (human); assay: maximal binding, 125I-SEQ ID NO:2 on KB cells
[20] = target: high affinity (nM range), low surface expression receptor on human tumor cells (VIP receptor) (human); assay: maximal binding, 125I-SEQ ID NO:2 on KB cells

Molecule: His-Ser-Asp-Aib-Val-4-Cl-D-Phe-Thr-Asp-Asn-Tyr-Thr-Arg-Leu-Arg-Lys-Gln-Leu-Ala-Val-Lys-Lys-Tyr-Leu-Asn-Ser-Ile-Leu-Asn-NH2 (HSD[Aib]V[dPhe(4-Cl)]TDNYTRLRKQLAVKKYLNSILN-NH2; N-terminus assumed; SMILES CC[C@H](C)[C@H](NC(=O)[C@H](CO)NC(=O)[C@H](CC(N)=O)NC(=O)[C@H](CC(C)C)NC(=O)[C@H](Cc1ccc(O)cc1)NC(=O)[C@H](CCCCN)NC(=O)[C@H](CCCCN)NC(=O)[C@@H](NC(=O)[C@H](C)NC(=O)[C@H](CC(C)C)NC(=O)[C@H](CCC(N)=O)NC(=O)[C@H](CCCCN)NC(=O)[C@H](CCCNC(=N)N)NC(=O)[C@H](CC(C)C)NC(=O)[C@H](CCCNC(=N)N)NC(=O)[C@@H](NC(=O)[C@H](Cc1ccc(O)cc1)NC(=O)[C@H](CC(N)=O)NC(=O)[C@H](CC(=O)O)NC(=O)[C@@H](NC(=O)[C@@H](Cc1ccc(Cl)cc1)NC(=O)[C@@H](NC(=O)C(C)(C)NC(=O)[C@H](CC(=O)O)NC(=O)[C@H](CO)NC(=O)[C@@H](N)Cc1c[nH]cn1)C(C)C)[C@@H](C)O)[C@@H](C)O)C(C)C)C(=O)N[C@@H](CC(C)C)C(=O)N[C@@H](CC(N)=O)C(N)=O) [SEQ ID NO:2, VIP receptor antagonist, preferred peptide (Xxx = Aib)]
Bmax1 (maximal binding) (VIP receptors; 4451 cells, high affinity receptor): 579 pM
Kd (VIP receptors; 4451 cells, high affinity receptor, read-out: Kd1): 4.48 nM
Bmax2 (maximal binding) (VIP receptors; 4451 cells, low affinity receptor): 51 nM
Kd (VIP receptors; 4451 cells, low affinity receptor, read-out: Kd2): 1910 nM
Bmax1 (maximal binding) (VIP receptors; A549 cells, high affinity receptor): 540 pM
Kd (VIP receptors; A549 cells, high affinity receptor, read-out: Kd1): 2.09 nM
Bmax2 (maximal binding) (VIP receptors; A549 cells, low affinity receptor): 48.3 nM
Kd (VIP receptors; A549 cells, low affinity receptor, read-out: Kd2): 1530 nM
Bmax1 (maximal binding) (VIP receptors; HBL 100 cells, high affinity receptor): 697 pM
Kd (VIP receptors; HBL 100 cells, high affinity receptor, read-out: Kd1): 2.13 nM
Bmax2 (maximal binding) (VIP receptors; HBL 100 cells, low affinity receptor): 69.1 nM
Kd (VIP receptors; HBL 100 cells, low affinity receptor, read-out: Kd2): 1600 nM
Bmax1 (maximal binding) (VIP receptors; HT29 cells, high affinity receptor): 367 pM
Kd (VIP receptors; HT29 cells, high affinity receptor, read-out: Kd1): 3.8 nM
Bmax2 (maximal binding) (VIP receptors; HT29 cells, low affinity receptor): 67.2 nM
Kd (VIP receptors; HT29 cells, low affinity receptor, read-out: Kd2): 1370 nM
Bmax1 (maximal binding) (VIP receptors; KB cells, high affinity receptor): 602 pM
Kd (VIP receptors; KB cells, high affinity receptor, read-out: Kd1): 4.2 nM
Bmax2 (maximal binding) (VIP receptors; KB cells, low affinity receptor): 42.9 nM
Kd (VIP receptors; KB cells, low affinity receptor, read-out: Kd2): 1840 nM
Bmax1 (maximal binding) (VIP receptors; L132 cells, high affinity receptor): 306 pM
Kd (VIP receptors; L132 cells, high affinity receptor, read-out: Kd1): 2.6 nM
Bmax2 (maximal binding) (VIP receptors; L132 cells, low affinity receptor): 45.8 nM
Kd (VIP receptors; L132 cells, low affinity receptor, read-out: Kd2): 1030 nM
Kd (VIP receptors; PA1 cells, high affinity receptor, read-out: Kd1): 5.6 nM
Kd (VIP receptors; PA1 cells, low affinity receptor, read-out: Kd2): 1890 nM
Bmax1 (maximal binding) (VIP receptors; PAI cells, high affinity receptor): 529 pM
Bmax2 (maximal binding) (VIP receptors; PAI cells, low affinity receptor): 47.7 nM
Bmax1 (maximal binding) (VIP receptors; PTC cells, high affinity receptor): 830 pM
Kd (VIP receptors; PTC cells, high affinity receptor, read-out: Kd1): 1.77 nM
Bmax2 (maximal binding) (VIP receptors; PTC cells, low affinity receptor): 96.6 nM
Kd (VIP receptors; PTC cells, low affinity receptor, read-out: Kd2): 1180 nM
kinds of receptors bound on the cell surface (VIP receptors; one high affinity (nM range), low expression, one low affinity, high expression): bound to two kinds of receptors on the cell surface

IC50 [1]: 0.236 nM
Bmax2 [2]: 67.2 nM
Bmax1 [3]: 367 pM
IC50 [4]: 5.41 nM
Kd [5]: 1840 nM
Kd [6]: 4.2 nM
Kd [7]: 2.09 nM
Bmax2 [8]: 51 nM
Bmax1 [9]: 579 pM
Bmax2 [10]: 45.8 nM
Bmax1 [11]: 306 pM
IC50 [12]: 6.8 nM
IC50 [13]: 6.2 nM
IC50 [14]: 4.3 nM
Bmax2 [15]: 96.6 nM
Bmax1 [16]: 830 pM
IC50 [17]: 2.78 nM
IC50 [18]: 0.35 nM
Bmax2 [19]: 42.9 nM
Bmax1 [20]: 602 pM
Molecule: HSD[Aib]V[dPhe(4-Cl)]TDNYTRLRKQLAVKKYLNSILN-NH2 (also: 125I-labelled form (iodogen) used as tracer)
